Source: patent US20080200454A1, “CARBON-LINKED TETRAHYDRO-PYRAZOLO-PYRIDINE MODULATORS OF CATHEPSIN S” (priority 2007, published 2008)
Counter-ions that a name gives are not always drawn.

Target: Recombinant human cathepsin S (CatS) (Homo sapiens, UniProt P25774)
Experiment: Recombinant human cathepsin S (CatS) inhibition assay, fluorogenic substrate Z-Valine-Valine-Arginine-AMC;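 also: Baculovirus-expressed CatS in pH 5.0 sodium acetate buffer with DTT and NaCl, fluorescence read each minute over 20 min, inhibition derived from rate slope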
Details: not given

Sequence of Recombinant human cathepsin S (CatS) (P25774 115-331): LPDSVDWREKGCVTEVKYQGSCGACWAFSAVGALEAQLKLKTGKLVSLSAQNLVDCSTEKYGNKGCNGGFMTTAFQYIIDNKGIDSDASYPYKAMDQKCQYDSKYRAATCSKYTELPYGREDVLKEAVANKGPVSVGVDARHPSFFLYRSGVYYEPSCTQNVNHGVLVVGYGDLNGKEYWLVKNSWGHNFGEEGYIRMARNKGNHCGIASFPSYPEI

| SMILES | IC50 |
| --- | --- |
| CS(=O)(=O)N1CCc2c(c(-c3ccc(Cl)c(C#Cc4ccc(CNCc5ccc(Cl)cc5)cc4)c3)nn2CCCN2CCOCC2CO)C1 (centres unmarked) [Example 419, (4-{3-[3-(4-Chloro-3-{[4-({[(4-chlorophenyl)methyl]amino}methyl)phenyl]ethynyl}phenyl)-5-(methylsulfonyl)-4,5,6,7-tetrahydro-1H-pyrazolo[4,3-c]pyridin-1-yl]propyl}morpholin-3-yl)methanol] | 180 nM |
| CS(=O)(=O)N1CCc2c(c(-c3ccc(Cl)c(CCCNS(=O)(=O)c4ccccc4C(=O)O)c3)nn2CCCN2CCC(N3CCCC3=O)CC2)C1 [Example 88, 2-{3-[2-Chloro-5-(5-methanesulfonyl-1-{3-[4-(2-oxo-pyrrolidin-1-yl)-piperidin-1-yl]-propyl}-4,5,6,7-tetrahydro-1H-pyrazolo[4,3-c]pyridin-3-yl)-phenyl]-propylsulfamoyl}-benzoic acid, trifluoroacetic acid salt] | 520 nM |
| CC(C)(C)OC(=O)N1CCC(C2CCN(C[C@H](O)Cn3nc(-c4ccc(Cl)c(CCc5ccc(Cl)cc5)c4)c4c3CCN(C(N)=O)C4)CC2)CC1 [Example 242, 1,1-Dimethylethyl 1′-{(2S)-3-[5-(aminocarbonyl)-3-{4-chloro-3-[2-(4-chlorophenyl)ethyl]phenyl}-4,5,6,7-tetrahydro-1H-pyrazolo[4,3-c]pyridin-1-yl]-2-hydroxypropyl}-4,4′-bipiperidine-1-carboxylate] | 30 nM |
| C[C@H]1COCCN1C[C@H](O)Cn1nc(-c2ccc(Cl)c(C#Cc3ccc(CNCc4ccc(Cl)cc4)cc3)c2)c2c1CCN(S(C)(=O)=O)C2 [Example 265, (2S)-1-[3-(4-Chloro-3-{4-[(4-chloro-benzylamino)-methyl]-phenylethynyl}-phenyl)-5-methanesulfonyl-4,5,6,7-tetrahydro-pyrazolo[4,3-c]pyridin-1-yl]-3-((3S)-3-methyl-morpholin-4-yl)-propan-2-ol] | 140 nM |
| COC(=O)CNCc1cc(C#Cc2cc(-c3nn(CCCN4CCOC[C@@H]4C)c4c3CN(C(=O)C(N)=O)CC4)ccc2Cl)ccc1Cl [Example 294, Methyl N-[(5-{[5-(5-[amino(oxo)acetyl]-1-{3-[(3S)-3-methylmorpholin-4-yl]propyl}-4,5,6,7-tetrahydro-1H-pyrazolo[4,3-c]pyridin-3-yl)-2-chlorophenyl]ethynyl}-2-chlorophenyl)methyl]glycinate] | 20 nM |
| CS(=O)(=O)N1CCc2c(c(-c3ccc(Cl)c(C#Cc4ccc(CO)cc4)c3)nn2CCCN2CCOCC2)C1 [Example 5, (4-{2-Chloro-5-[5-methanesulfonyl-1-(3-morpholin-4-yl-propyl)-4,5,6,7-tetrahydro-1H-pyrazolo[4,3-c]pyridin-3-yl]-phenylethynyl}-phenyl)-methanol] | 290 nM |
| CS(=O)(=O)N1CCc2c(c(-c3ccc(Cl)c(C#Cc4ccc(CNCc5ccc(Cl)cc5)cc4)c3)nn2CCCN2CCC3(CC2)OCCO3)C1 [Example 335, 1-{4-[(2-Chloro-5-{1-[3-(1,4-dioxa-8-azaspiro[4.5]dec-8-yl)propyl]-5-(methylsulfonyl)-4,5,6,7-tetrahydro-1H-pyrazolo[4,3-c]pyridin-3-yl}phenyl)ethynyl]phenyl}-N-[(4-chlorophenyl)methyl]methanamine] | 60 nM |
| CC(C)N1CCc2ccc(C#Cc3cc(-c4nn(CCCN5CCOC[C@@H]5C)c5c4CN(S(C)(=O)=O)CC5)ccc3Cl)cc2C1 [Example 279, 7-({2-Chloro-5-[1-{3-[(3S)-3-methylmorpholin-4-yl]propyl}-5-(methylsulfonyl)-4,5,6,7-tetrahydro-1H-pyrazolo[4,3-c]pyridin-3-yl]phenyl}ethynyl)-2-(1-methylethyl)-1,2,3,4-tetrahydroisoquinoline] | 110 nM |
| NC(=O)N1CCc2c(c(-c3ccc(Cl)c(C#Cc4ccc(Cl)c(C(=O)NCCN5CCOCC5)c4)c3)nn2CCCN2CCSCC2)C1 [Example 585, 3-[4-Chloro-3-({4-chloro-3-[(2-morpholin-4-ylethyl)carbamoyl]phenyl}ethynyl)phenyl]-1-(3-thiomorpholin-4-ylpropyl)-1,4,6,7-tetrahydro-5H-pyrazolo[4,3-c]pyridine-5-carboxamide] | 40 nM |
| CS(=O)(=O)N1CCc2c(c(-c3ccc(Cl)c(CCCO)c3)nn2CCCN2CCC(N3CCCC3=O)CC2)C1 [Example 313, 1-[1-(3-{3-[4-Chloro-3-(3-hydroxypropyl)phenyl]-5-(methylsulfonyl)-4,5,6,7-tetrahydro-1H-pyrazolo[4,3-c]pyridin-1-yl}propyl)piperidin-4-yl]pyrrolidin-2-one] | 1960 nM |
| CC(C)(C)OC(=O)NCc1cccc(C#Cc2cc(-c3nn(CCCN4CCOCC4)c4c3CN(S(C)(=O)=O)CC4)ccc2Cl)c1 [Example 376, 1,1-Dimethylethyl {[3-({2-chloro-5-[5-(methylsulfonyl)-1-(3-morpholin-4-ylpropyl)-4,5,6,7-tetrahydro-1H-pyrazolo[4,3-c]pyridin-3-yl]phenyl}ethynyl)phenyl]methyl}carbamate] | 1010 nM |
| CC(C)(C)OC(=O)N1CCc2cc(C#Cc3cc(-c4nn(CCCN5CCOCC5)c5c4CN(S(C)(=O)=O)CC5)ccc3Cl)ccc2C1=O [Example 525, 1,1-Dimethylethyl 6-({2-chloro-5-[5-(methylsulfonyl)-1-(3-morpholin-4-ylpropyl)-4,5,6,7-tetrahydro-1H-pyrazolo[4,3-c]pyridin-3-yl]phenyl}ethynyl)-1-oxo-3,4-dihydroisoquinoline-2(1H)-carboxylate] | 350 nM |
| CC(C)(C)OC(=O)N1CCC(C2CCN(C[C@H](O)Cn3nc(-c4ccc(Cl)c(C#CC5CCCCC5)c4)c4c3CCN(S(C)(=O)=O)C4)CC2)CC1 [Example 233, 1,1-Dimethylethyl 1′-[(2S)-3-{3-[4-chloro-3-(cyclohexylethynyl)phenyl]-5-(methylsulfonyl)-4,5,6,7-tetrahydro-1H-pyrazolo[4,3-c]pyridin-1-yl}-2-hydroxypropyl]-4,4′-bipiperidine-1-carboxylate] | 7920 nM |
| NC(=O)N1CCc2c(c(-c3ccc(Cl)c(CCc4ccc(Cl)cc4)c3)nn2CCCN2CCOCC2)C1 [Example 145, 3-{4-Chloro-3-[2-(4-chloro-phenyl)-ethyl]-phenyl}-1-(3-morpholin-4-yl-propyl)-1,4,6,7-tetrahydro-pyrazolo[4,3-c]pyridine-5-carboxylic acid amide] | 90 nM |
| CS(=O)(=O)N1CCc2c(c(-c3ccc(Cl)c(CCc4ccc(CNCc5ccc(Cl)cc5)cc4)c3)nn2CCCN2CCN(c3ccccc3)CC2)C1 [Example 395, 1-{4-[2-(2-Chloro-5-{5-(methylsulfonyl)-1-[3-(4-phenylpiperazin-1-yl)propyl]-4,5,6,7-tetrahydro-1H-pyrazolo[4,3-c]pyridin-3-yl}phenyl)ethyl]phenyl}-N-[(4-chlorophenyl)methyl]methanamine] | 20 nM |

Same assay, conditions: CatS IC50

| SMILES | IC50 |
| --- | --- |
| CS(=O)(=O)c1ccc(CNCc2cccc(C#Cc3cc(-c4nn(CCCN5CCOCC5)c5c4CN(S(C)(=O)=O)CC5)ccc3Cl)c2)cc1 [Example 524, 1-[3-({2-Chloro-5-[5-(methylsulfonyl)-1-(3-morpholin-4-ylpropyl)-4,5,6,7-tetrahydro-1H-pyrazolo[4,3-c]pyridin-3-yl]phenyl}ethynyl)phenyl]-N-{[4-(methylsulfonyl)phenyl]methyl}methanamine] | 530 nM |
| CS(=O)(=O)N1CCc2c(c(-c3ccc(Cl)c(C#Cc4ccc(CNCc5ccc(Cl)cc5)cc4)c3)nn2CCCN2CCC(O)CC2)C1 [Example 330, 1-{3-[3-(4-Chloro-3-{[4-({[(4-chlorophenyl)methyl]amino}methyl)phenyl]ethynyl}phenyl)-5-(methylsulfonyl)-4,5,6,7-tetrahydro-1H-pyrazolo[4,3-c]pyridin-1-yl]propyl}piperidin-4-ol] | 90 nM |
| CC(=O)NC1CCN(CCCn2nc(-c3ccc(Cl)c(C#Cc4ccc(CNCc5ccc(Cl)cc5)cc4)c3)c3c2CCN(C(N)=O)C3)CC1 [Example 459, 1-{3-[4-(Acetylamino)piperidin-1-yl]propyl}-3-(4-chloro-3-{[4-({[(4-chlorophenyl)methyl]amino}methyl)phenyl]ethynyl}phenyl)-1,4,6,7-tetrahydro-5H-pyrazolo[4,3-c]pyridine-5-carboxamide] | 20 nM |
| CS(=O)(=O)N1CCc2c(c(-c3ccc(Cl)c(C#Cc4cccs4)c3)nn2CCCN2CCOCC2)C1 [Example 12, 3-(4-Chloro-3-thiophen-2-ylethynyl-phenyl)-5-methanesulfonyl-1-(3-morpholin-4-yl-propyl)-4,5,6,7-tetrahydro-1H-pyrazolo[4,3-c]pyridine] | 790 nM |
| C[C@H]1COCCN1CCCn1nc(-c2ccc(Cl)c(C#Cc3ccc(C(=O)NCCN4CCOCC4)cc3)c2)c2c1CCN(C(=O)C(N)=O)C2 [Example 169, 4-{[5-(5-[Amino(oxo)acetyl]-1-{3-[(3S)-3-methylmorpholin-4-yl]propyl}-4,5,6,7-tetrahydro-1H-pyrazolo[4,3-c]pyridin-3-yl)-2-chlorophenyl]ethynyl}-N-(2-morpholin-4-ylethyl)benzamide] | 50 nM |
| CS(=O)(=O)N1CCc2c(c(-c3ccc(Cl)c(C#Cc4ccc(CNCc5cccnc5)cc4)c3)nn2CCCN2CCOCC2)C1 [Example 404, 1-[4-({2-Chloro-5-[5-(methylsulfonyl)-1-(3-morpholin-4-ylpropyl)-4,5,6,7-tetrahydro-1H-pyrazolo[4,3-c]pyridin-3-yl]phenyl}ethynyl)phenyl]-N-(pyridin-3-ylmethyl)methanamine] | 370 nM |
| C[C@H]1COCCN1CCCn1nc(-c2ccc(Cl)c(C#Cc3ccc(Cl)c(CNC4CC4)c3)c2)c2c1CCN(C(=O)C(N)=O)C2 [Example 589, 2-(3-[4-Chloro-3-({4-chloro-3-[(cyclopropylamino)methyl]phenyl}ethynyl)phenyl]-1-{3-[(3S)-3-methylmorpholin-4-yl]propyl}-1,4,6,7-tetrahydro-5H-pyrazolo[4,3-c]pyridin-5-yl)-2-oxoacetamide] | 30 nM |

Same assay, conditions: CatS IC50, Table 2; average of results obtained

| SMILES | IC50 |
| --- | --- |
| CS(=O)(=O)N1CCc2c(c(-c3ccc(Cl)c(C#Cc4ccc(F)cc4)c3)nn2CCCN2CCOCC2)C1 [Example 31, 3-[4-Chloro-3-(4-fluoro-phenylethynyl)-phenyl]-5-methanesulfonyl-1-(3-morpholin-4-yl-propyl)-4,5,6,7-tetrahydro-1H-pyrazolo[4,3-c]pyridine] | 440 nM |
